In assay [1] the test system is PC3-PSMA xenograft. The experiment in a line: In vivo combination study of ^225Ac-Compound I and olaparib in PC3-PSMA tumor xenograft bearing mouse model. On the procedure: An in vivo combination study was conducted with ^225Ac-Compound I and olaparib using a PSMA overexpressing PC3 (PC3-PSMA, prostate cancer) tumor xenograft bearing mouse model. Groups of mice (n=5/group) were treated with ^225Ac-Compound I administered as a single dose (intravenous), at a dose sub-optimal for monotherapeutic efficacy (1.23 MBq/kg or 1 μCi, based on 30 g mice). Additional groups of mice (n=5/group) were dosed daily with olaparib (oral gavage) using a dose range of 25, 50, or 100 mg/kg for 28 consecutive days in combination with ^225Ac-Compound I. Olaparib dosing started on the same day that ^225Ac-Compound I was dosed (FIG. 1). Olaparib monotherapy and vehicle control groups (n=5/group) were included as controls. Tumor measurements were taken 2-3 times per week and used to calculate tumor volume. Study duration was for 50 days after initial therapeutic administration.
Tumor growth in study animals was tracked over time and expressed as Relative Tumor Volume (RTV; tumor volume on day X divided by initial tumor volume on day 0) (FIGS. 2A-2C). Single agent olaparib monotherapy was found ineffective at all dose levels tested.

Assay [2] has as its system PC3-PSMA xenograft. Briefly: In vivo combination study of ^225Ac-Compound I and elimusertib in PC3-PSMA tumor xenograft bearing mouse model. Particulars: 1.23 MBq/kg [^225Ac]-Compound I single i.v. dose combined with elimusertib 5, 20 and 40 mg/kg; compared to either monotherapy or vehicle. On the procedure: Groups of mice (n=5/group) were treated with ^225Ac-Compound I, administered as a single dose (intravenous), at a dose sub-optimal for monotherapeutic efficacy (1.23 MBq/kg or 1 μCi, based on 30 g mice). […] Tumor measurements were taken 2-3 times per week and used to calculate tumor volume. Study duration was 61 days after initial therapeutic administration.
Tumor growth was tracked over time and expressed as Relative Tumor Volume (RTV; tumor volume on day X divided by initial tumor volume on day 0) (FIGS. 4A-4C).

The structures appear in SMILES notation.

Regarding `O=C(O)CC[C@H](NC(=O)N[C@@H](CCCCNC(=O)CCCCCCC(=O)NCCCC[C@@H](NC(=O)[C@@H](Cc1ccccc1)NC(=O)[C@@H](Cc1ccc(O)c(I)c1)NC(=O)CCC(C(=O)O)N1CCN(CC(=O)O)CCN(CC(=O)O)CCN(CC(=O)O)CC1)C(=O)O)C(=O)O)C(=O)O` (stereo partly drawn) [[^225Ac]-Compound I, metal not drawn], the “Tumor growth inhibition (Relative Tumor Volume)” value was “enhanced tumor growth inhibition” in the assay with PC3-PSMA xenograft [1] (1.23 MBq/kg [^225Ac]-Compound I single i.v. dose combined with olaparib 25, 50 or 100 mg/kg daily, compared to either monotherapy or vehicle) and “enhanced tumor growth inhibition” in the assay on PC3-PSMA xenograft [2].
In the case of `O=C(c1cc(Cc2n[nH]c(=O)c3ccccc23)ccc1F)N1CCN(C(=O)C2CC2)CC1` [olaparib, reference compound], the “Tumor growth (Relative Tumor Volume)” value in the assay on PC3-PSMA xenograft [1] (single agent olaparib monotherapy, oral gavage daily for 28 days, all dose levels tested (25, 50, 100 mg/kg)) is listed as “ineffective”.

These data come from patent US20260241048A1, “PSMA-TARGETED RADIOPHARMACEUTICALS AND DNA DAMAGE RESPONSE INHIBITOR COMBINATION THERAPY” (FUSION PHARMACEUTICALS INC., priority 2023, published 2026).
